From patent publication US5747505A, “Heterocyclic aryl-, alkyl- and cycloalkylacetamides” (Bayer Aktiengesellschaft, priority 1995, dated 1998)

System: release of ApoB-100-associated lipoproteins from HepG2 cells
Experiment: Inhibition of the release of ApoB-100-associated lipoproteins from cultivated liver cells (HepG2), immunoassay for human LDL
Format: cell-based
Conditions: substance concentration at which light absorption (450 nm) is inhibited by 50% vs solvent control
Description: 1. Inhibition of the release of ApoB-100-associated lipopnoteins
The test for detecting the inhibition of the release of ApoB-100-associatedlipoproteins-from liver cells was carried out in vitro using cultivated liver cells, preferably using cells of the human line HepG2. These cells are grown under standard conditions in medium for the culture of eukaryotic cells, preferably in RPMI 1640 with 10% foetal calf serum. HepG2 cells synthesize and secrete into the culture supernatant ApoB-100-associated lipoprotein particles which in principle are constructed similarly to the VLDL and LDL particles which are to be found in the plasma.
These particles can be detected using an immunoassay for human LDL. This immunoassay is carried out using antibodies which have been induced against human LDL in the rabbit under standard conditions. The anti-LDL antibodies (rabbit anti-LDL Ab) were purified by affinity chromatography on an immunosorbent using human LDL. These purified rabbit anti-LDL Ab are adsorbed on the surface of plastic. Expediently, this adsorption takes place on the plastic surface of microtiter plates having 96 wells, preferably on MaxiSorp plates. If ApoB-100-associated particles are present in the supernatant of Hep-G2 cells, these can bind to the insolubilized rabbit anti-LDL Ab and an immune complex is formed which is bound to the plastic surface. Non-bound proteins are removed by washing. The immune complex on the plastic surface is detected using monoclonal antibodies which have been induced against human LDL and purified according to standard conditions. These antibodies were conjugated with the enzyme peroxidase. Peroxidase converts the colourless substrate TMB into a coloured product in the presence of H2 O2. After acidification of the reaction mixture with H2 SO4, the specific light absorption at 450 nm is determined, which is a measure of the amount of ApoB-100-associated particles which have been secreted into the culture supernatant by the HepG2 cells.
The IC50 value indicates at which substance concentration the light absorption is inhibited by 50% in comparison with the control (solvent control without substance).

Structure (SMILES)	IC50 [nM]
O=C(N[C@@H](CO)c1ccccc1)C(c1ccc(OCc2ccc3ccccc3n2)cn1)C1CCCC1 (stereo partly shown) [Example 5]	622
O=C(N[C@@H](CO)c1ccccc1)C(c1ccc(OCc2ccc3ccccc3n2)s1)C1CCCCCC1 (stereo partly drawn) [Example 1, 2-Cycloheptyl-N-(2-hydroxy-1(R)-phenylethyl)-2-[5-(quinoline-2-ylmethoxy)thiophen-2-yl]acetamide]	195
O=C(N[C@@H](CO)c1ccccc1)C(c1ccc2cc(OCc3ccc4ccccc4n3)ccc2c1)C1CCCC1 (stereo partly shown) [Example 8]	1880
O=C(NCc1ccccc1)C(c1ccc(OCc2ccccc2Cl)cn1)C1CCCCCC1 (stereo not shown) [Example 4]	11
O=C(NCC1CCCCC1)C(c1ccc2cc(OCc3ccc4ccccc4n3)ccc2c1)C1CCCC1 (stereo not shown) [Example 9]	> 2000
O=C(N[C@@H](CO)c1ccccc1)C(c1ccc(OCc2ccccc2Cl)cn1)C1CCCCCC1 (stereo partly shown) [Example 3]	71
O=C(NCc1ccccc1)C(c1ccccc1)N1CCC(OCc2ccc3ccccc3n2)CC1 (stereo not shown) [Example 2]	> 2000
O=C(N[C@@H](CO)c1ccccc1)C(c1ccc(OCc2ccc3ccccc3n2)cn1)C1CCCCCC1 (stereo partly shown) [Example 6]	255

More lines, now with the values ahead:

IC50 [nM]	Structure (SMILES)
> 2000	COc1cc(CNC(=O)C(c2ccc3cc(OCc4ccc5ccccc5n4)ccc3c2)C2CCCC2)ccc1O (stereo not shown) [Example 10]
> 2000	Cc1ccc(CNC(=O)C(c2ccc3cc(OCc4ccc5ccccc5n4)ccc3c2)C2CCCC2)cc1 (stereo not shown) [Example 12]
> 2000	O=C(N[C@H](CO)c1ccccc1)C(c1ccc2cc(OCc3ccc4ccccc4n3)ccc2c1)C1CCCC1 (stereo partly shown) [Example 11]
235	O=C(N[C@@H](CO)c1ccccc1)[C@@H](c1ccc(OCc2ccc3ccccc3n2)cn1)C1CCCCCC1 [Example 14]
235	O=C(N[C@@H](CO)c1ccccc1)[C@H](c1ccc(OCc2ccc3ccccc3n2)cn1)C1CCCCCC1 [Example 13]
